Laboratory results reported in patent US20120018333A1, “Reducing Side Effects of Tramadol” (priority 2007, published 2012).
Counter-ions that a name gives are not always drawn.

Assays:
[1] = used for analgesia; cited from earlier work
[2] = volunteer study of adverse events: tramadol HCl alone or combined with sildenafil citrate and naltrexone HCl before sexual intercourse
Protocol: In particular, three healthy, heterosexual male subjects (mean age 57) signed informed consents and volunteered to self administer oral tramadol HCl 100 mg 2 to 5 hours before sexual intercourse and to record any adverse events. At other times, these volunteers self administered oral tramadol HCl 25 to 100 mg combined with oral sildenafil citrate 50 mg or oral sildenafil citrate 50 mg plus oral naltrexone HCl 2.5 to 10 mg 2 to 5 hours before sexual intercourse and recorded any adverse effects.

[3] = placebo controlled, dose-ranging clinical study of oral tramadol HCl in men with severe premature ejaculation; type: in vivo, human; details: percentages based on total drug exposures for the three doses, 2 to 5 hours before intercourse
Protocol: See U.S. Pat. No. 6,974,839, Safarinejad et al., J. Clin. Psychopharmacol., 26(1):27-31 (February 2006) and Salem et al., J. Sex. Med., 5(1):188-193 (January 2008). A placebo controlled, dose-ranging clinical study that enrolled more than 60 male volunteers with severe premature ejaculation who self administered three different doses of oral tramadol HCl 2 to 5 hours before sexual intercourse was performed on behalf of DMI BioSciences, Inc., Aurora, Colo. […] However, the patient reported outcome responses in this study also reported the following previously unreported mild or moderate adverse events (percentages based on total drug exposures for the three doses): erectile dysfunction (8%-14%), anorgasmia (3%-7%), and penile hypoesthesia (4%-5%). Less common unexpected, drug-related mild or moderate adverse events were decreased libido (<1%-2%) and decreased orgasmic sensation (0-<1%). These mild or moderate adverse events related to sexual activity were generally dose-dependent and occurred more frequently in men 40 years of age and older.

[4] = tramadol HCl 100 mg alone, % of total drug exposures, three volunteers

Structure (SMILES): COc1cccc(C2(O)CCCCC2CN(C)C)c1 (stereo not shown) [Tramadol, 2-[(dimethylamino)methyl]-1-(3-methoxyphenyl)-cyclohexanol]
- incidence of reported side effects (dizziness, nausea, constipation, headache, somnolence, vomiting, pruritis, CNS stimulation, asthenia, sweating, dyspepsia, dry mouth, diarrhea) [1]: ≥ 5%

Structure (SMILES): COc1cccc([C@]2(O)CCCC[C@H]2CN(C)C)c1 (racemic) [tramadol HCl, (±) cis-2-[(dimethylamino)methyl]-1-(3-methoxyphenyl)-cyclohexanol hydrochloride]
- serious adverse events ([2]; oral, 2 to 5 hours before sexual intercourse): No serious adverse events occurred
- anorgasmia [2, 4]: 29%
- constipation [2, 4]: 71%
- decreased libido [2, 4]: 43%
- decreased orgasmic sensation [2, 4]: 57%
- dizziness [2, 4]: 14%
- dry mouth [2, 4]: 57%
- erectile dysfunction [2, 4]: 43%
- fatigue [2, 4]: 14%
- insomnia [2, 4]: 71%
- itching [2, 4]: 57%
- nasal congestion [2, 4]: 57%
- nausea [2, 4]: 14%
- penile hypoesthesia [2, 4]: 43%
- restlessness [2, 4]: 29%
- mild or moderate adverse events, 100 mg dose compared with 25 mg ([2]; tramadol HCl alone, oral): substantially more
- anorgasmia (mild or moderate adverse event) [3]: 3%-7%
- decreased libido (mild or moderate adverse event) [3]: <1%-2%
- erectile dysfunction (mild or moderate adverse event) [3]: 8%-14%
- penile hypoesthesia (mild or moderate adverse event) [3]: 4%-5%

Structure (SMILES): O=C1CC[C@@]2(O)[C@H]3Cc4ccc(O)c5c4[C@@]2(CCN3CC2CC2)[C@H]1O5 [naltrexone]
- effectiveness of tramadol in delaying ejaculation ([2]; naltrexone 2.5 mg to 10 mg given with tramadol): did not reduce
